Key:
Zip11 [1] = experiment: Zip11 mRNA expression in human cells treated with vitamins; assay type: cell-based; conditions: Human HEK293 and HT1080 cells, treated 24 hours; vitamin B3 10, 50, 100 μM; vitamin B12 1, 10, 50 μM; vitamin C 10, 100, 500 μM
Method: Human HEK293 and HT1080 cells were treated for 24 hours respectively at different concentrations of vitamin B3 (10 μM, 50 μM, 100 μM), vitamin B12 (1 μM, 10 μM, 50 μM) and vitamin C (10 μM, 100 μM, 500 μM). The relative expression quantity of Zip11 mRNA was detected.

ZIP11 [2] = experiment: ZIP11 expression in liver of wild-type mice injected with concanavalin A (RT-PCR); assay type: in vivo, mouse; conditions: wild-type C57BL/6 mice, 10 mg/kg through the tail vein, after 18 hours
Method: The wild-type C57BL/6 mice were divided into two groups. An experimental group was injected with 10 mg/kg concanavalin (ConA) through the tail vein.

Compound	relative expression quantity of Zip11 mRNA (Zip11 [1])	expression level of ZIP11 in liver tissue (RT-PCR, β-actin as reference) (ZIP11 [2])
O=C(O)c1cccnc1 [vitamin B3]	increase the expression level of Zip11	–
O=C1O[C@H]([C@@H](O)CO)C(O)=C1O [vitamin C]	increase the expression level of Zip11	–
Concanavalin A [ConA]	–	decrease the level of ZIP11
vitamin B12	increase the expression level of Zip11	–

— patent US20240043927A1, “METHOD FOR IDENTIFYING SUBSTANCE CAPABLE OF AFFECTING AGING” (ZHEJIANG BAISHOUKANGDI CO., LTD., priority 2019, published 2024)
